System: human adult astrocytes
Assay: TH activity in transduced human adult astrocytes (enzymatic assay of Reinhard et al.)
Format: cell-based
Details: AdPGKtet hTH-1-infected astrocytes, doxycycline 10 ng/ml
Description: The medium was renewed every second day.
Three, 7 and 14 days after infection, cells were harvested and processed to measure TH activity and evaluate L-Dopa production. TH activity of cell pellets was assayed as previously described (Reinhard et al. 1986). The production of L-Dopa was assessed after growing human astrocytes for 24 h in DMEM/F12 without FCS. Conditioned media was collected, and 0.5 ml aliquots were mixed with an alumina suspension (40 mg/ml) in 0.05 M Tris-HCl, pH 8.6. Each mixture was then continuously stirred for 10 min, washed with the Tris-HCl buffer, and the alumina finally collected by centrifugation (800 g, 5 min. 4° C.). Catechols adsorbed onto the alumina gel were eluted with 0.6 N perchloric acid (0.1 ml per sample), and the eluate was neutralized with 2 M potassium phosphate pH 7.4 (20 μl per sample). After centrifugation (30 000 g, 15 min, 4° C.), 10 μl aliquots of the cleared supernatant were injected into a high performance liquid chromatography column (Ultrasphere IP, 25 cm, 0.46 cm outer diameter, 5 μm) for the electrochemical quantification of L-Dopa, as described in detail elsewhere (Adrien et al., 1989).

C[C@H]1c2cccc(O)c2C(=O)C2=C(O)[C@]3(O)C(=O)C(C(N)=O)=C(O)[C@@H](N(C)C)[C@@H]3[C@@H](O)[C@@H]21 [doxycycline]
decrease of TH activity in the presence of doxycycline (14 days post-infection): at least 10 fold | TH activity in doxycycline-treated cells (day 14): 3,590 pmol/mg prot/h

From US6943016B1, “Human adult astrocytes, their preparation and uses thereof” (Aventis Pharma S.A., priority 1999, dated 2005)
